Converted amounts (≈) assume the structure as drawn. Read-outs that look alike come from different tables or passages of the source.
How the values were obtained:
[1] = pKa of Compound 1; type: physicochemical
[2] = Equilibrium solubility of Compound 1 (HPLC); type: physicochemical; conditions: for solubility thermodynamic: thermodynamic from solid, pH 7.0
[3] = in vivo
[4] = system: red blood cells; experiment: Hemolytic testing in rats after intravenous administration (hemoglobin in urine, Hemastix reagent strips); type: in vivo, rat; parameters: key: Hemastix scale: 0=negative, 1=non-hemolyzed trace … 6=large+++; conditions: 1-2 min slow-hand bolus, 10 mg/mL drug in 22% Solutol HS15, pH 7.0
Excerpt: The term “hemolysis” as used herein means destruction of red blood cells which leads to the release of hemoglobin from within the red blood cells into the blood plasma. Hemolysis can be measured by methods well known in the art, e.g., Hemastix® reagent strips (Bayer Corp., Elkhart, Ind.) which detect blood in urine. The
Hemastix® reagent strips turn from yellow to dark green depending upon the amount of hemoglobin found in the urine. The Hemastix® scale is as follows: 0=negative, 1=non-hemolyzed trace, 3=hemolyzed trace, 4=small+, 5=moderate++, and 6=large+++.
Urine samples from the rats were assessed for hemolysis using Hemastix® reagent strips (No. 2190, Bayer Corp., Elkhart Ind.). […] The Hemastix® reagent strips detect the peroxide-like activity of hemoglobin. The strips turn from yellow to dark green depending upon the amount of hemoglobin found in the urine. The Hemastix® scale is as follows: 0=negative, 1=non-hemolyzed trace, 3=hemolyzed trace, 4=small+, 5=moderate++, and 6=large+++.
The methodology for this study was to administer (into the tail vein of a rat) each formulation over 15 minutes by intravenous infusion using an infusion pump or to administer the formulation within two minutes by bolus route using a syringe. Urine was tested for the presence of free hemoglobin using the pooled urine collection method at the six-hour interval. For the six hour pooled urine collection, rats were dosed and placed in a metabolism cage. Six hour post dose, the rats were euthanized by carbon dioxide over-inhalation, and the urine sample was collected. A minimum of five subjects were tested for each formulation and the urine samples were analyzed for hemolysis using Hemastix® reagent strips as indicated in Comparative Example 2.
[…] If the rat voided any urine in the cage, the urine was analyzed using Hemastix® reagent strips to determine the presence of hemoglobinuria.
The methodology for this example was to administer each formulation over 15 minutes by i.v. infusion using an infusion pump or to administer the formulations within 2 minutes by bolus injection using a syringe and delivering the formulation into the tail vein of a rat. Urine was tested by dipstick for the presence of free hemoglobin using the pooled urine collection method at the 6-hour interval.

C[C@@H](OC[C@@]1(c2ccccc2)CC[C@]2(CCC(=O)N2)CN1)c1cc(C(F)(F)F)cc(C(F)(F)F)c1 [Compound 1, (5S,8S)-8-[{(1R)-1-(3,5-Bis-(trifluoromethyl)phenyl)-ethoxy}-methyl]-8-phenyl-1,7-diazaspiro[4.5]decan-2-one]
pKa [1]: 6.9 | solubility thermodynamic ([2]; 16% Captisol (sulfobutyl ether beta-cyclodextrin), aqueous with cosolvent or surfactant or cyclodextrin, 16% Captisol): < 0.006 mg/mL | solubility ([2]; 22% Solutol, aqueous with cosolvent or surfactant or cyclodextrin): 50 mg/mL (≈ 99.9 mM) | solubility thermodynamic ([2]; aqueous with cosolvent or surfactant or cyclodextrin, 20% Solutol): ~50 mg/mL (≈ 99.9 mM) | solubility ([2]; pH 7.4, aqueous buffer, read-out: solubility at the physiological pH of 7.4): < 0.004 mg/mL | time at which half concentration is achieved [3]: around 180 hrs | Hemolysis (Female rats) ([4]; 10 mg/kg, 15 min): 1 | Hemolysis (Male rats) ([4]; 10 mg/kg, 15 min): 3 | Hemolysis (Female rats) ([4]; 10 mg/kg, 30 min): 1 | Hemolysis (Male rats) ([4]; 10 mg/kg, 30 min): 0 | Hemolysis (Female rats) ([4]; 10 mg/kg, 60 min): 0 | Hemolysis (Male rats) ([4]; 10 mg/kg, 60 min): 0 | Hemolysis (Female rats) ([4]; 20 mg/kg, 15 min): 3 | Hemolysis (Male rats) ([4]; 20 mg/kg, 15 min): 3 | Hemolysis (Female rats) ([4]; 20 mg/kg, 30 min): 0 | Hemolysis (Male rats) ([4]; 20 mg/kg, 30 min): 3 | Hemolysis (Female rats) ([4]; 20 mg/kg, 60 min): 0 | Hemolysis (Male rats) ([4]; 20 mg/kg, 60 min): 0 | Hemolysis (Female rats) ([4]; 30 mg/kg, 15 min): 3 | Hemolysis (Male rats) ([4]; 30 mg/kg, 15 min): 3 | Hemolysis (Female rats) ([4]; 30 mg/kg, 30 min): 2 | Hemolysis (Male rats) ([4]; 30 mg/kg, 30 min): 0 | Hemolysis (Female rats) ([4]; 30 mg/kg, 60 min): 0 | Hemolysis (Male rats) ([4]; 30 mg/kg, 60 min): 0

— US20160024092A1, “INTRAVENOUS FORMULATIONS OF NEUROKININ-1 ANTAGONISTS” (OPKO Health, Inc., priority 2009, published 2016)
